{"source": "patent US20250186336A1", "about": "“METHOD OF TREATING WET AGE-RELATED MACULAR DEGENERATION” (EYEPOINT PHARMACEUTICALS, INC., priority 2022, published 2025)", "key": {"[1]": {"test_system": "Laser-Induced Choroidal Neovascularization (CNV)", "assay": "Swine model of laser-induced choroidal neovascularization, safety and efficacy (Example 7)", "assay_type": "in vivo", "procedure": "Safety and efficacy of a vorolanib insert were evaluated in a Swine (Mini-pig) Model of Laser-Induced Choroidal Neovascularization (CNV). The primary objective of this study was to evaluate the long-term safety and inhibition of vascular permeability and neovascularization in a laser-induced model of choroidal neovascularization (CNV) using a vorolanib insert in swine.\nOn the day of lasering (Groups 1-4) animals were treated with an 810 nm diode laser delivered through an indirect ophthalmoscope. Approximately 6 single laser spots were placed between retinal veins. Both eyes underwent laser treatment according to the schedule in the table above.\nOn the day of intravitreal injections animals were anesthetized and the eyes were aseptically prepared. […] Animals were allowed to recover normally from the procedure. The pigs were given a topical drop of antibiotic ophthalmic solution 4-6 hours later, and then BID for 2 additional days with at least 6 hours between doses. Animals were dosed on either Day 0 immediately following laser CNV induction or 7 days prior to laser CNV induction according to the schedule in the table above. […]\nAt time points indicated by the experimental design table, following final data collections, animals were euthanized. Histology was evaluated for eyes from Groups 5-6."}, "[2]": {"assay": "Intravitreal pharmacokinetic study of vorolanib insert (Example 5B)", "assay_type": "in vivo, Dutch Belted Rabbits", "procedure": "Another Intravitreal Pharmacokinetic Study was performed in Dutch Belted Rabbits. The objective of this study was to evaluate the plasma and ocular pharmacokinetics of a vorolanib insert following bilateral intravitreal injection in rabbit eyes. Animals were evaluated up to 12 months following placement of the intravitreal insert.\nDutch Belted rabbits were administered vorolanib inserts in each eye by intravitreal injection. Group 1 eyes received 1 insert containing 643 μg of vorolanib, and Group 2 eyes received 2 inserts containing 900 μg total. Blood samples were collected at 2, 7, 14, and 28 days and then once monthly for months 2-12. Inserts were recovered at 2, 7, and 14 days and then at 1, 2, 4, 6, 8, 10, and 12 months. Residual vorolanib levels were determined in all explants using high-performance liquid chromatography. The vorolanib release rate was estimated based on residual levels in the explants. Plasma and ocular tissues were separated and analyzed for vorolanib and its metabolite using liquid chromatography mass spectrometry."}, "[3]": {"assay": "18 month intravitreal toxicity and plasma pharmacokinetics study (Example 6)", "assay_type": "in vivo", "procedure": "An 18 month intravitreal toxicity study for the insert was also performed in 80 Dutch Belted rabbits (40 male and 40 female). Animals were evaluated for a period of 6 and 18 months following placement of intravitreal inserts. The objective was to characterize the ocular toxicity, plasma pharmacokinetics and biodegradation of a vorolanib insert following bilateral intravitreal injection.\nThe tables below describe the group assignments and dose levels. For the toxicology groups, animals were sacrificed at 6 months and 18 months. For the plasma pharmacokinetic analysis, blood samples were collected at Days 1, 3, and 7 and then 1, 2, 3, 4, 5, 6, 12, 14, 16 and 18 Months.\nThe placebo group (1) animals received two placebo inserts by injection in each eye. The low dose group (2) animals received 2 inserts in each eye. The mid dose group (3) animals received 3 inserts in each eye given in 2 separate injections. The high dose group (4) animals received 4 inserts in each eye given in 2 separate injections (2 inserts/injection). The highest dose group (5) animals received 6 inserts in each eye given in 2 separate injections (3 inserts/injection).\nAt each scheduled timepoint, whole blood was collected via puncture of a marginal ear vein. Samples were analyzed for clinical pathology and plasma pharmacokinetics. Animals were euthanized according to the schedules described above. […]"}, "[4]": {"assay": "Solubility of vorolanib in water", "assay_type": "physicochemical", "from_the_text": "Vorolanib has the chemical designation (S,Z)—N-(1-(Dimethylcarbamoyl) pyrrolidin-3-yl)-5-((5-fluoro-2-oxoindolin-3-ylidene)methyl)-2,4-dimethyl-1H-pyrrole-3-carboxamide. Synonyms include the term “X-82”. The molecular formula is C23H26FN5O3. […]"}, "[5]": {"assay": "Intravitreal pharmacokinetic study of vorolanib insert (Example 5A)", "assay_type": "in vivo, Male Dutch Belted Rabbits", "conditions": "for vitreous level of vorolanib at steady state: intravitreal; for AUC(0-t): read-out: vitreous AUClast", "procedure": "An Intravitreal Pharmacokinetic Study was performed in Male Dutch Belted Rabbits. The objective of this study was to characterize the plasma and ocular tissue pharmacokinetics of a vorolanib insert following bilateral intravitreal injection on Day 1. Animals were evaluated up to 24 months following placement of the intravitreal insert.\nThe low dose group (1) received 3 inserts per eye for a total dose of 630 μg per eye. The high dose group (2) animals received 6 inserts per eye given in 2 separate injections (3 inserts per injection) for a total dose of 1,260 μg per eye.\nPrior to each scheduled sacrifice point, one whole blood sample was collected from a targeted 2 animals per group via puncture of a marginal ear vein. Samples were tested for levels of vorolanib and its metabolite. Two animals per group were euthanized on day 1 at 6, 12, 24 and 48 hours, on days 7 and 14, and at 1, 2, 4, 6, 8, 16 and 24 months."}, "[6]": {"conditions": "male, Dutch Belted, rabbit, vitreous humor, topical or ocular, 630 ug, through day 180"}, "[7]": {"conditions": "male, Dutch Belted, rabbit, vitreous humor, topical or ocular, 1260 ug, through day 180"}}, "note": "Read-outs that look alike come from different tables or passages of the source.", "data": [{"compound": "aflibercept: VEGF inhibitor (Regeneron), intravitreal injection, comparator in the swine CNV model", "values": [{"measurement": "reduction in Corrected Total Lesion Fluorescence (CTLF) value", "setting": "[1]; Day 7 to Day 28, aflibercept 2 mg, 50 μL/eye IVT, Day 0", "value": "largest reduction in CTLF values"}, {"measurement": "efficacy in the model", "setting": "[1]; aflibercept 2 mg", "value": "normal amounts of efficacy"}]}, {"compound": "Cc1[nH]c(/C=C2\\C(=O)Nc3ccc(F)cc32)c(C)c1C(=O)N[C@H]1CCN(C(=O)N(C)C)C1", "note": "[vorolanib, (S,Z)—N-(1-(Dimethylcarbamoyl)pyrrolidin-3-yl)-5-((5-fluoro-2-oxoindolin-3-ylidene)methyl)-2,4-dimethyl-1H-pyrrole-3-carboxamide]", "values": [{"measurement": "concentration at 10 months", "setting": "[2]; Dutch Belted, rabbit, in vivo", "value": "< 10", "unit": "ng/mL"}, {"measurement": "drop in mean vorolanib concentration in ocular tissues and plasma", "setting": "[2]; Dutch Belted, rabbit, in vivo", "value": "85%-99%"}, {"measurement": "vorolanib exposure rank order", "setting": "[2]; ocular tissues and plasma", "value": "choroid=retina=vitreous>aqueous humor>plasma"}, {"measurement": "concentrations in target ocular tissues (choroid and retina) relative to IC50 for VEGFR2", "setting": "[2]; through 8 months", "value": "above the IC50 for VEGFR2"}, {"measurement": "vorolanib plasma levels", "setting": "[3]; plasma", "value": "low pg/mL range"}, {"measurement": "adverse findings", "setting": "[3]; up to 6 inserts per eye", "value": "No adverse findings"}, {"measurement": "solubility", "setting": "[4]", "value": "< 10", "unit": "µg/mL"}, {"measurement": "change in plasma levels", "setting": "[5]; after 99 days", "value": "No apparent change"}, {"measurement": "vorolanib levels in the vitreous and the retina/choroid relative to IC50 for VEGFR", "setting": "[5]; at the time points tested", "value": "remained significantly above the IC50 for VEGFR"}, {"measurement": "retina/choroid level at steady state", "setting": "[5]; high dose 1,260 μg per eye", "value": 89, "unit": "ng/g"}, {"measurement": "vitreous level of vorolanib at steady state", "setting": "[5]; high dose 1,260 μg per eye (6 inserts)", "value": 97, "unit": "ng/mL"}, {"measurement": "steady state reached by", "setting": "[5]; in vivo", "value": "≤ 105", "unit": "days"}, {"measurement": "burst period of drug release", "setting": "[5]; in vivo, before steady state", "value": 90, "unit": "days"}, {"measurement": "retina/choroid level at steady state", "setting": "[5]; low dose 630 μg per eye", "value": 49, "unit": "ng/g"}, {"measurement": "vitreous level of vorolanib at steady state", "setting": "[5]; low dose 630 μg per eye (3 inserts)", "value": 56, "unit": "ng/mL"}, {"measurement": "Cmax", "setting": "[5]; [6]", "value": 232, "unit": "ng/mL"}, {"measurement": "Tmax", "setting": "[5]; [6]", "value": 14, "unit": "days"}, {"measurement": "AUC(0-t)", "setting": "[5]; [6]", "value": 316, "unit": "µg·h/mL"}, {"measurement": "Cmax", "setting": "[5]; [7]", "value": 1700, "unit": "ng/mL"}, {"measurement": "AUC(0-t)", "setting": "[5]; [7]", "value": 1580, "unit": "µg·h/mL"}, {"measurement": "vorolanib plasma levels in the PK study", "setting": "[5]; plasma", "value": "low pg/mL range"}]}]}
